One experiment deals with Ph+ALL strain KOPN57bi. As to the kind of experiment: H^3-thymidine uptake method, Ph+ALL strain KOPN57bi. Type of experiment: cell-based. The note with it: Homo sapiens, 144 h, read-out: % inhibition of H^3-thymidine uptake. An excerpt:
Effect in the combination was recognized from 2 days in the culture, and % inhibition reached to 90% or more on 3 days in the culture.

Experiment [1] concerns Ph+ALL cell strain (KOPN57bi). As to the kind of experiment: Viable cells by alamar blue method. It counts as cell-based, human. The note with it: LMD 20 μM, IM 0.5 μM, 3 days. (In general: Alamar Blue is a resazurin reagent that responds to reducing activity.)
The test system of experiment [2] is Ph+ALL cell strain (KOPN57bi). As to the kind of experiment: Cell death by Annexin V/propidium iodide (PI) double staining, flow cytometry. The note with it: Homo sapiens, 72 h, read-out: viable cell fraction (Annexin V-, PI-). An excerpt: At an early stage of cell death, specific phospholipids are exposed on the cell membrane. By labeling Annexin V, which strongly binds to the phospholipid, with a fluorescent dye, rate of the early cell death can be detected by using flow cytometry. On the other hand, at a late stage of cell death, cell membrane/nuclear membrane is partially destroyed.

Experiment [3] concerns Ph+ALL cell strain (KOPN57bi). As to the kind of experiment: Cell turnover by PI staining, flow cytometry. As to conditions: LMD 20 μM, IM 0.5 μM, 3 days. It counts as cell-based, human. The procedure:
When PI staining is performed under the condition that the cell membrane/nuclear membrane is fixed with a drug and PI can freely bind to intranuclear DNA, staining intensity changes depending on amount of DNA. Thus, cell turnover stop phase (G0/G1 phase, 2N), DNA synthesis phase (S phase, 2N→4N), pre-cell division phase (G2 phase, 4N) and cell division phase (M phase, 4N→2N) can be distinguished each other by using flow cytometry. In addition, when the cell death is induced by apoptosis, a cell fraction that DNA amount decreases by DNA cleavage (less than 2N) from the G0/G1 phase is detected.
On the technique in general: Flow cytometry measures light scatter and fluorescence of single cells or particles in a stream.

In experiment [4] the test system is Ph+ALL cell strain (KOPN57bi). As to the kind of experiment: Apoptosis by active caspase-3 antibody, flow cytometry. Type of experiment: cell-based, human. The note with it: LMD 20 μM, IM 0.5 μM, 3 days, compared with no addition. An excerpt: After fixation of cell membrane, the cells were stained with anti-active caspase-3 antibodies and positive cells were investigated by using flow cytometry.

The subject of experiment [5] is Ph+ALL cell strain (KOPN57bi). As to the kind of experiment: Immunodeficient mice transplanted with Ph+ALL cells, in vivo. As to conditions: NOG mouse; LMD 30 mg/kg/day, IM 150 mg/kg/day, PO; two weeks after administration; saline approximately 30%. On the set-up: species or system NOD/SCID/γ null mouse (NOG mouse).
Excerpt: NOD/SCID/γ null mouse (NOG mouse) is widely used for research as immunodeficient mouse capable of efficiently transplanting human hematopoietic stem cells or tumor cells. A mouse transplanted with human leukemia cells is a system that can study therapeutic effect of a drug on human leukemia cells in the mouse body (in vivo). […] The mice were observed over time. Proportion of Ph+ALL cells in mononuclear cell fraction was investigated by using flow cytometry after isolating mononuclear cell fraction from mouse bone marrow blood two weeks after administration and staining with anti-human CD45 antibody binding to human leukemia cells.
The test system of another experiment is IKZF1 protein. As to the kind of experiment: Change of IKZF1 expression by western blotting. As to conditions: KOPN57bi; LMD 20 μM, IM 0.5 nM; 24 hours. Type of experiment: cell-based, human. (A western blot detects proteins with antibodies after separation by electrophoresis.)

SMILES strings stand for the structures.

As to `Nc1cccc2c1CN(C1CCC(=O)NC1=O)C2=O` (racemic) [LMD, (RS)-3-(4-amino-1-oxo-3H-isoindol-2-yl) piperidine-2,6-dione], the inhibition (as a rule, the percentage by which the read-out fell short of the control) at 20 µM with Ph+ALL strain KOPN57bi was about 80%. For the same compound, the “number of viable cells (alamar blue)” value in experiment [1] is listed as “mildly decreased”. Besides, in experiment [2], the viability at 20 µM is about 60%. Moreover, in experiment [3], the S phase fraction entry is “decrease” and the “apoptotic fraction (less than 2N)” value is “mild increase”. The “active caspase-3 positive rate” value in experiment [4] was “slightly increased”. The “proportion of Ph+ALL cells (human CD45 positive) in bone marrow mononuclear cell fraction” value in experiment [5] was found to be 2.1%.
`Cc1ccc(NC(=O)c2ccc(CN3CCN(C)CC3)cc2)cc1Nc1nccc(-c2cccnc2)n1` [IM, 4-(4-Methylpiperazin-1-ylmethyl)-N-[4-methyl-3-(4-pyridin-3-ylpyrimidin-2-ylamino)benzamide monomethanesulfonate]: in experiment [1], the “number of viable cells (alamar blue)” value is given as “mildly decreased”. Moreover, the “active caspase-3 positive rate” value in experiment [4] was “slightly increased”. Further, in the experiment with IKZF1 protein, the “expression of dominant-negative isoform (Ik 6)” value is listed as “No change”.

These data come from US10314834B2, “Therapeutic agent or treatment method for Philadelphia chromosome-positive (Ph+) acute lymphocytic leukemia (ALL) having IKZF1 mutation” (UNIVERSITY OF YAMANASHI, priority 2015, dated 2019).
